Where a name gives a salt, the structure may show the parent alone. Read-outs that look alike come from different tables or passages of the source.
Legend:
cancer test cell lines = assay: Interaction of rauwolfia-related compounds with metformin; format: cell-based
From the text: 6.5 cells show many features of oncogenic transformation such as loss of growth-factor (IL3) dependence and signaling pathway addiction. […]. These cells display exquisite sensitivity to many clinical drugs. […].

[1] = tested on: murine 6.5 cells (inner mitochondrial membrane potential); assay: Mitochondrial membrane potential by TMRM fluorescence assay; format: cell-based, mouse; conditions: TMRM 100 nM 20 min, control peak 403, syrosingopine pre-incubation 4 h (highest amount), FCCP pre-treatment 1 h (FIG. 11)
Procedure: Murine 6.5 cells were treated with TMRM (panels 1-6), and in addition pre-incubated with FCCP (panel 2), syrosingopine at 0.1 μM (panel 3), 0.5 μM (panel 4), 2 μM (panel 5) or at 5 μM (panel 6) and fluorescence intensity was measured. Thin lines: fluorescence intensity of control cells or FCCP-treated cells (panel 2). Heavy lines indicate cells pre-incubated additionally with syrosingopine (panels 3-6). X-axis indicates fluorescence intensity, Y-axis indicates relative cell numbers.
Murine 6.5 cells were treated for 20 min with the potentiometric fluorescent dye TMRM (tetramethylrhodamine methyl ester, AbD Serotec, 100 nM) and the fluorescence intensity was measured at 575 nm emission after excitation at 488 nm using a flow cytometer (CellLabQuanta, Beckman Coulter). This dye accumulates in the mitochondrial matrix when the inner membrane potential is more positive outside due to the extrusion of protons. […] The effect of syrosingopine was assessed by pre-incubating cells with increasing concentrations of syrosingopine for 4 h as indicated, followed by TMRM staining.

mouse mast cell line 6.5 [2] = assay: AlamarBlue cell proliferation assay, mouse mast cell line 6.5; format: cell-based
Procedure: (§1) AlamarBlue conversion cell proliferation assay. […] All data points were performed in tripliclate.

OPM2 cells [3] = assay: AlamarBlue cell proliferation assay, OPM2; format: cell-based, human; conditions: for growth inhibition, combined versus each compound singly: syrosingopine titration, metformin 5 mM, 3 days (FIG. 1B)
Procedure: as §1

HL60 cells = format: cell-based, human; conditions: oligomycin at a concentration below 1 nM, 3 days (FIG. 10B)
Procedure: as §1

OPM2 cells [4] = assay: Apoptosis assay (annexin V / propidium iodide FACS), OPM2; format: cell-based, human; conditions: 5 μM syrosingopine, 2 mM metformin, singly or combined, 3 days (FIG. 3)
Procedure: (§2) OPM2 and RPM18226 cells were seeded at a density of 100,000 cells/5 ml medium with addition of compounds. […] RPM18226: 2 μM syrosingopine (S), 1 mM metformin (M). […] Annexin V is an apoptotic marker and was detected using a FITC-coupled antibody on the FL1-channel. Propidium iodide (PI) exclusion staining for vital cells was detected simultaneously on the FL3-channel. For each measurement, the PI and annexin V negative cells represent the viable cell population (white bars). Early apoptotic cells are PI-negative, annexin V-positive (hatched bars) and late apoptotic cells are PI-positive, annexin V-positive (black bars). Bars are plotted on the Y-axis as a percentage of the total cell population.
(§3) Apoptosis was determined by Annexin V-FITC (Invitrogen) and propidium iodide counter-staining, and cells were analysed by FACS to distinguish between viable/early apoptotic/late apoptotic cell sub-populations. Cells were seeded at a density of 100,000 cells/5 ml medium with addition of compounds as indicated. 500 μl of culture was harvested after 3 days and the cells were washed and stained with PI/Annexin V before FACs analysis.

RPMI8226 cells [5] = assay: Apoptosis assay (annexin V / propidium iodide FACS), RPMI8226; format: cell-based, human; conditions: 2 μM syrosingopine, 1 mM metformin, singly or combined, 3 days (FIG. 3)
Procedure: as §2, §3

Jurkat cells = assay: AlamarBlue cell proliferation assay, Jurkat; format: cell-based, human; conditions: syrosingopine titration, metformin 5 mM, 3 days (FIG. 1D)
Procedure: as §1

K562 cells = assay: AlamarBlue cell proliferation assay, K562; format: cell-based, human; conditions: syrosingopine titration, metformin 5 mM, 3 days (FIG. 1E)
Procedure: as §1

RPMI8226 cells [6] = assay: AlamarBlue cell proliferation assay, RPMI8226; format: cell-based, human; conditions: syrosingopine titration, metformin 5 mM, 3 days
Procedure: as §1

[7] = tested on: 6.5 cell tumors in DBA mice; conditions: mouse, in vivo
Procedure: Drug treatment commenced when tumors reached 100 mm^2 in size. Mice were separated into treatment groups and injected intra-peritoneally with PBS (horizontal bars), syrosingopine (S, filled diamonds, 2 mg/kg body weight), metformin (M, filled triangles, 250 mg/kg body weight) and metformin plus syrosingopine (S+M, crossed squares) daily for 15 days. Mice were sacrificed when tumor size became excessive (day 15) and tumors were dissected for measurement. (A) Chart showing tumor area (in mm^2) measured over the course of the treatment, d=days. (B) Mean body weight (g) of the mice at the time of sacrifice. Figures (n) above each bar indicate the number of mice per treatment group.
4×10^56.5 cells were injected in 150 μl of PBS into the flanks of immuno-compatible DBA mice. Tumor progression was monitored and treatment was started when tumor area reached 100 mm^2 in size. Mice were injected intra-peritoneally daily with metformin (250 mg/kg body weight), syrosingopine (2 mg/kg body weight) or combined for 15 days before being sacrificed for tumor tissue measurements.

mouse mast cell line 6.5 [8] = tested on: mouse mast cell line 6.5
[9] = tested on: human peripheral blood leukocytes; assay: Phytohaemagglutinin-stimulated T cell proliferation; format: cell-based; conditions: PHA 10 μg/ml; day 3; syrosingopine titration with or without metformin 4 mM (FIG. 7, right)
Procedure: Human peripheral blood leukocytes were cultured in presence or absence of phytohaemagglutinin.
Normal human buffy coat cells were obtained from a local blood donation center in accordance with the ethical guidelines. 80 ml of blood was diluted with 200 ml of Iscove's medium and overlayed on a Ficoll gradient. The gradient was centrifuged at 1400×g for 5 minutes to separate the leukocyte fraction from erythrocytes. Cells were plated on coated tissue culture dishes for 1 hour to remove adherent cells, and the remaining suspension cells were collected by centrifugation and counted with a haemocytometer. 50,000 cells were seeded per well in 96-well dishes and compounds were added according to the various treatment regimes to a final medium volume of 150 μl. For stimulation, phytohemagglutinin was added to a final concentration of 10 μg/ml. At day 3, proliferation was determined by AlamarBlue assay.

[10] = 6.5 cells, agent at fixed, non- or minimally toxic concentration (FIG. 8) with increasing syrosingopine, 3 days

Compound: COC(=O)[C@H]1[C@H]2C[C@H]3c4[nH]c5ccccc5c4CCN3C[C@H]2CC[C@@H]1O [rauwolscine HCl]
- interaction with metformin (cancer test cell lines): do not show significant interaction

Compound: COC(=O)[C@H]1[C@H]2C[C@@H]3c4[nH]c5cc(OC)ccc5c4CCN3C[C@H]2C[C@@H](OC(=O)/C=C/c2cc(OC)c(OC)c(OC)c2)[C@@H]1OC [rescinnnamine]
- interaction with metformin (cancer test cell lines): do not show significant interaction

Compound: COC(=O)[C@H]1[C@H]2C[C@H]3c4[nH]c5ccccc5c4CCN3C[C@@H]2CC[C@@H]1O.Cl [corynanthine HCl]
- interaction with metformin (cancer test cell lines): do not show significant interaction

Compound: N#CC(C#N)=NNc1ccc(OC(F)(F)F)cc1 [FCCP, Carbonyl cyanide-p-trifluoromethoxyphenylhydrazone]
- TMRM fluorescence peak [1]: 42 arbitrary units
- synergistic killing with syrosingopine (mouse mast cell line 6.5 [2]): induced synergistic killing

Compound: CC[C@@H]1/C=C/C=C/C[C@H](C)C(O)[C@](C)(O)C(=O)[C@H](C)[C@@H](O)[C@H](C)C(=O)[C@H](C)[C@@H](O)[C@H](C)/C=C/C(=O)O[C@H]2[C@@H](C)[C@@H](CC1)O[C@@]1(CC[C@@H](C)[C@@H](C[C@H](C)O)O1)[C@@H]2C (stereo partly drawn) [oligomycin, Oligomycin]
- toxicity of the mitochondrial inhibitor alone (mouse mast cell line 6.5 [2]; 6.5 cells, absence of syrosingopine, concentrations employed for synergistic killing, 3 days (FIG. 9)): without toxic effect
- synergistic killing with syrosingopine (mouse mast cell line 6.5 [2]; [10]): induced synergistic cell killing
- killing in combination with syrosingopine (OPM2 cells [3]; OPM2, oligomycin at a concentration below 1 nM, 3 days (FIG. 10C)): kills human cancer lines
- killing in combination with syrosingopine (HL60 cells): kills human cancer lines

Compound: O=C([O-])CC(=O)[O-].[Na+].[Na+] [sodium malonate, Sodium malonate]
- synergistic killing with syrosingopine (mouse mast cell line 6.5 [2]; [10]): Synergistic killing

Compound: COc1ccc2c3c([nH]c2c1)[C@H]1C[C@H]2[C@H](C[C@@H](O)[C@H](OC)[C@H]2C(=O)O)CN1CC3 [reserpinnic acid]
- interaction with metformin (cancer test cell lines): do not show significant interaction

Compound: COC(=O)[C@H]1[C@H]2C[C@@H]3c4[nH]c5cc(OC)ccc5c4CCN3C[C@H]2C[C@@H](OC(=O)c2cc(OC)c(OC)c(OC)c2)[C@@H]1OC [reserpine]
- interaction with metformin (mouse mast cell line 6.5 [2]; 6.5 cells, reserpine over a range of concentrations, metformin 5 mM (FIG. 4)): No interaction
- interaction with metformin (OPM2 cells [3]; OPM2 cells, reserpine over a range of concentrations, metformin 5 mM (FIG. 4)): No interaction
- interaction with metformin (cancer test cell lines): do not show significant interaction

Compound: COC(=O)C1=CO[C@@H](C)[C@H]2CN3CCc4c([nH]c5ccccc45)[C@@H]3C[C@H]12 [ajmalicine]
- interaction with metformin (cancer test cell lines): do not show significant interaction

Compound: O=C(CC(=O)C(F)(F)F)c1cccs1 [TTFA, 2-Thenoyltrifluoroacetone]
- synergistic killing with syrosingopine (mouse mast cell line 6.5 [2]; [10]): Synergistic killing

Compound: CN(C)C(=N)NC(=N)N [metformin, 3-(diaminomethylidene)-1,1-dimethylguanidine hydrochloride]
- apoptotic induction (annexin V / PI) (OPM2 cells [4]): No apoptotic induction
- inhibition at 5000 µM (mouse mast cell line 6.5 [2]; Mus musculus, Mast cell, 72 h, 6.5 cells, metformin alone at 5 mM, 3 days (FIG. 1A), read-out: inhibition of growth): 20%
- apoptotic induction (annexin V / PI) (RPMI8226 cells [5]): No apoptotic induction
- growth inhibition, combined versus each compound singly (OPM2 cells [3]; OPM2): only a marginal effect
- growth inhibition, combined versus each compound singly (Jurkat cells): only a marginal effect
- growth inhibition, combined versus each compound singly (K562 cells): only a marginal effect
- growth inhibition, combined versus each compound singly (RPMI8226 cells [6]): only a marginal effect
- body weight at sacrifice [7]: no significant difference in body weight

Compound: N#CC(=C(/N)Sc1ccccc1N)/C(C#N)=C(\N)Sc1ccccc1N [U0126]
- sensitivity of 6.5 cells to inhibitor (mouse mast cell line 6.5 [8]): sensitive to nanomolar concentrations

Compound: COC(=O)[C@@H]1[C@H]2C[C@H]3c4[nH]c5ccccc5c4CCN3C[C@@H]2CC[C@@H]1O [yohimbine HCl]
- interaction with metformin (cancer test cell lines): do not show significant interaction

Compound: CCCCCC[C@H]1C(=O)O[C@H](C)[C@H](NC(=O)c2cccc(NC=O)c2O)C(=O)O[C@@H](C)[C@@H]1OC(=O)CC(C)C [antimycin A, Antimycin A]
- synergistic killing with syrosingopine (mouse mast cell line 6.5 [2]): Synergistic killing

Compound: N=C(N)NC(=N)NCCc1ccccc1 [phenformin, 1-(diaminomethylidene)-2-(2-phenylethyl)guanidine]
- growth inhibition, phenformin alone (mouse mast cell line 6.5 [2]; 6.5 cells, concentrations up to 10 μM, 3 days (FIG. 6, left)): no growth inhibition
- synergy with syrosingopine (mouse mast cell line 6.5 [2]; 6.5 cells, phenformin 10 μM combined with increasing concentrations of syrosingopine, 3 days (FIG. 6, right)): strong synergistic effect

Compound: Stavudine
- synergistic killing with syrosingopine (mouse mast cell line 6.5 [2]; [10]): induced synergistic killing

Compound: O=C(O)[C@@H]1[C@H]2C[C@H]3c4[nH]c5ccccc5c4CCN3C[C@@H]2CC[C@@H]1O [yohimbinic acid]
- interaction with metformin (cancer test cell lines): do not show significant interaction

Compound: CCOC(=O)Oc1c(OC)cc(C(=O)O[C@@H]2C[C@@H]3CN4CCc5c([nH]c6cc(OC)ccc56)[C@H]4C[C@@H]3[C@H](C(=O)OC)[C@H]2OC)cc1OC [syrosingopine]
- apoptotic induction (annexin V / PI) (OPM2 cells [4]): No apoptotic induction
- TMRM fluorescence peak [1]: 955 arbitrary units
- inhibition of growth, syrosingopine alone (mouse mast cell line 6.5 [2]; 6.5 cells, syrosingopine titration without metformin, 3 days (FIG. 1A)): virtually non-inhibitory
- apoptotic induction (annexin V / PI) (RPMI8226 cells [5]): No apoptotic induction
- growth inhibition, combined versus each compound singly (OPM2 cells [3]; OPM2): only a marginal effect
- inhibition of PHA-stimulated proliferation [9]: considerably less so
- growth inhibition, combined versus each compound singly (Jurkat cells): only a marginal effect
- growth inhibition, combined versus each compound singly (K562 cells): only a marginal effect
- growth inhibition, combined versus each compound singly (RPMI8226 cells [6]): only a marginal effect
- signs of overt toxicity ([7]; DBA): no significant difference in body weight between the treatment groups (FIG. 5B) or any signs of overt toxicity
- body weight at sacrifice [7]: no significant difference in body weight
